Results reported in patent publication US12036222B2, “Methods of treating cancers overexpressing CARM1 with EZH2 inhibitors and a PARP inhibitor” (The Wistar Institut of Anatomy and Biology, priority 2018, dated 2024).
Entries after “also recorded” stand apart in the source; their conditions may differ.

Assays:
[1] = system: CARM1-expressing A1847 tumors; experiment: Subcutaneous xenograft model, CARM1-expressing A1847 cells; type: in vivo, NSG mice; conditions: 50 mg/kg daily i.p., three weeks
Method: The protocols were approved by the Institutional Animal Care and Use Committee (IACUC). 5×10^6 control A1847 or A1847 CARM1 knockout cells were unilaterally injected subcutaneously into 6-8-week old female immunocompromised NSG mice (n=5 per group). One week after injection the mice were randomized and treated with vehicle control (20% captisol) or GSK126 (50 mg/kg daily). Tumor size was measured every 3 days for 3 weeks. At end of the experiments, tumors were surgically dissected and tumor burden was calculated based on tumor weight.
EZH2 inhibitors, such as GSK126, are used safely in clinical trials for hematopoietic malignancies (Ribrag et al. Eur J Cancer (2014) 50:197). To determine the effects of EZH2 inhibition in vivo on the growth of CARM1-expressing ovarian tumors, two xenograft models were utilized. In the subcutaneous xenograft models, the injected CARM1-expressing A1847 cells were first allowed to grow for one week to establish the tumors. Mice were then randomized and treated daily with vehicle control or GSK126 (50 mg/kg) by intraperitioneal (i.p.) injection as reported (see, e.g., Bitler et al. Nature Medicine (2015) 21:231-8 and McCabe et al. Nature (2012) 492:108-12). […] To more closely mimic the tumor microenvironment, A1847 cells were orthotopically transplanted into the bursa covering the ovary of immunocompromised NSG mice. […]

CARM1-depleted cells = experiment: Colony formation assay with CARM1-depleted cells; type: cell-based; conditions: CARM1-depleted vs normal cells, GSK126 vs DMSO
Method: To confirm the relationship between CARM1 overexpression and sensitivity to EZH2 inhibition, further studies were performed to assess the impact of CARM1 depletion. In FIG. 9, a Western blot of CARM1 and BAF155me2 in CARM1 depleted cells with a control (Actin) is shown. In addition, the results of a colony formation assay (unstained, magnified) with normal and CARM1-depleted cells, in DMSO (control) and treated with GSK126, are shown in FIG. 10. A colony formation assay with normal and CARM1-depleted cells, in DMSO (control) and after treatment with GSK126 is shown in FIG. 11, with the results quantified in FIG. 12. Finally, FIG. 13 illustrates the results of treatment of CARM1 depleted cells with GSK126.
(§1) 500 to 5,000 cell were plated into a 24 well tissue culture plate and treated with the indicated compounds. Medium was changed every three days with appropriate drug doses for 12 days or until control wells became confluent. Colonies were washed twice with PBS and fixed with 10% methanol and 10% acetic acid in distilled water. Fixed colonies were stained with 0.005% crystal violet. Integrated density was measured using NIH ImageJ software.

HOSE or FTE cells = experiment: Colony formation assay in normal HOSE and FTE cells; type: cell-based, human; conditions: 10 μM GSK126, colony formation
Method: FIG. 33 illustrates relative growth of the indicated HOSE, FTE, and EOC cancer cell lines with high or low CARM1 expression treated with 10 μM GSK126 or vehicle in a colony formation assay as determined by NIH Image J quantification.
as §1

[2] = system: CARM1-expressing cell lines (A1847, OVCAR10, and PEO4); experiment: Colony formation assay and GSK126 response curves in CARM1-expressing ovarian cancer cell lines; type: cell-based, human
Method: In FIG. 4, CARM1 expression in a panel of high-grade ovarian carcinomas is depicted. FIG. 5 illustrates the results of a colony formation assay with a panel of normal and ovarian cancer cell lines with DMSO and with 10 μM of the EZH2 inhibitor GSK126 (Formula (1)).
In FIG. 7, response curves for GSK126 in a panel of normal and ovarian cancer cell lines are shown.
as §1

[3] = system: tumors formed by CARM1 knockout cells; experiment: Immunohistochemistry and qRT-PCR of dissected CARM1 knockout tumors; type: in vivo, mice
Method: FIGS. 82 to 84 illustrate immunohistochemical analysis for serial sections of tumors dissected from mice injected with CARM1 knockout A1847 cells. Serial sections of tumors dissected from the indicated treatment groups described in FIGS. 73 to 75 were subjected to immunohistochemical staining for H3K27Me3, EZH2, cleaved caspase 3, and Ki67 (FIG. 82). Scale bar=50 μm. Histological score (H-score) of the indicated proteins was calculated for 3 separate fields from 5 tumors from 5 individual mice from each of the indicated groups (FIG. 83). Expression of the indicated EZH2/BAF155 target genes was determined by qRT-PCR in the tumors dissected from the indicated treatment groups (FIG. 84).
The observed tumor growth suppression in vivo was correlated with the molecular pathways underlying the CARM1-dependent effects of EZH2 inhibition. To do so, immunohistochemical (IHC) analysis was performed for markers of cell proliferation (Ki67), apoptosis (cleaved caspase 3), H3K27Me3 and EZH2. […] Finally, the observed decrease in cell proliferation and increase in apoptosis correlated with the upregulation of the identified CARM1-regulated EZH2/BAF155 target genes such as DAB2, DLC1 and NOXA by the EZH2 inhibitor GSK126 in vivo (FIG. 81).

`CC[C@H](C)n1cc(C)c2c(C(=O)NCc3c(C)cc(C)[nH]c3=O)cc(-c3ccc(N4CCNCC4)nc3)cc21` [GSK126, (S)-1-(sec-butyl)-N-((4,6-dimethyl-2-oxo-1,2-dihydropyridin-3-yl)methyl)-3-methyl-6-(6-(piperazin-1-yl)pyridin-3-yl)-1H-indole-4-carboxamide] was tested, and the “growth of CARM1-expressing tumors” value [1] was “significantly inhibited the growth”, the “sensitivity after CARM1 depletion” value (CARM1-depleted cells) was “abrogating the sensitivity” and the “growth of HOSE or FTE cells” value (HOSE or FTE cells) was “did not affect the growth; also recorded: didn't affect the growth”. The “sensitivity in colony formation assay” value ([2]; 10 μM GSK126 vs DMSO, panel of normal and ovarian cancer cell lines) was “particular sensitivity of CARM1-expressing cells”, the “IC50 values from GSK126 response curves” value ([2]; CARM1-expressing lines A1847, OVCAR10, PEO4 compared with rest of panel of normal and ovarian cancer cell lines, numbers only in FIG. 8) was “Significantly reduced IC50 values” and the “correlation of cellular response with CARM1 expression levels” value ([2]; panel of EOC cell lines, 10 μM GSK126) was “correlation between CARM1 expression levels and cellular response to GSK126”. For the same molecule, the H3K27Me3 ([3]; IHC) was “reduction of H3K27Me3”, the “expression of Ki67” value ([3]; IHC) was “did not affect the expression” and the “expression of cleaved caspase 3” value ([3]; IHC) was “did not affect the expression”. For the same molecule, the “expression of CARM1 regulated EZH2/BAF155 target genes” value ([3]; qRT-PCR) was “did not increase the expression”.
